Measured values reported in article PMC10856564, “Metabolites from Streptomyces aureus (VTCC43181) and Their Inhibition of Mycobacterium tuberculosis ClpC1 Protein” (Molecules, 2024).
Entries after “also recorded” stand apart in the source; their conditions may differ.

Columns and labels:
[1] = test system: Gr (+) and Gr (-) microbacteria; conditions: in vitro; against Gr (+) and Gr (-) microbacteria; cited from earlier work
Description: Streptomyces aureus is a species of actinomycete belonging to the genus Streptomyces. Its spores are spherical or oval in shape, and the average diameter is about 0.9 μ in width and 1.2 μ in length. […] The morphological characteristics of the S. aureus depend on different nutritional environments. A previous study reported that many active secondary metabolites were produced by this actinomycete strain. Alkaloid azirinomycin and 3-methyl-2H-azirine-2-carboxylic acid isolated fr ...

[2] = test system: recombinant ClpC1 protein; assay type: biochemical; conditions: compounds at 0.1 µM, 1.0 µM, and 10.0 µM, released phosphate, BIOMOL Green, absorbance at 620 nm; for Affection of ATPase activity of ClpC1: controls ecumicin and rufomycin, values only in Figure 5
[3] = cited from earlier work
Experimental: Compound 1 (7 mg) was afforded after purification using Sephadex and silica gel column chromatography, followed by thin-layer chromatography. This compound was obtained as a colorless powder.

[4] = cited from earlier work; remark: listed apart in the source
Experimental: (§1) Compound 2 (3 mg) was yielded after column chromatography on normal-phase silica gel and the Sephadex LH20 column. Compound 2 (3 mg) was obtained as a white powder. […] The NMR data of compound 2 indicated a lactone ring structure consisting ...

HCV NS3 protease = conditions: cited from earlier work
Experimental: as §1

leukocyte = conditions: cited from earlier work
Experimental: as §1

tuberculosis bacteria = conditions: through targeting the regulatory protein ClpC1; cited from earlier work
ClpC1 [5] = conditions: cited from earlier work; for ClpC1 inhibition: no reference at the place
ClpC1/CplP1/ClpP2 = conditions: via change in configuration of ClpC1; cited from earlier work
ClpC1 [6] = conditions: cited from earlier work
[7] = cited from earlier work; remark: listed apart in the source
Experimental: Compound 3 (12 mg) was obtained as a white solid. This compound was afforded after two reverse-phase column chromatography. […] In the ^1H NMR spectrum, ten signals of protons appeared at δH 3.57–3.54 (2H, m, α-H of Leu^1 & Leu^2), 3.50 (1H, d, J = 3.5, α-H of Ile), 3.43 (3H, d, J = 4.5, α-H of Ala^1, Ala^2, and Ala^3), 1.97–1.95 (1H, m, β-H of Ile), 1.83–1.77 (2H, m, γ-H of Leu^1, and Leu^2), 1.83–1.59 (4H, m, β-H of Leu^1, and Leu^ ...

## CC1=NC1C(=O)O (centres unmarked) [azirinomycin]
[1]
  antibiotic activity: exhibited broad-spectrum antibiotic activity in vitro

## O=C1CCC(=O)N(O)CCCCCNC(=O)CCC(=O)N(O)CCCCCNC(=O)CCC(=O)N(O)CCCCCN1 [compound 1, nocardamin]
[2]
  Affection of ATPase activity of ClpC1: did not affect the ATPase activity of ClpC1
[3]
  antimalarial activity: antimalarial activity
  siderophore activity: showed siderophore activity

## O=c1ccoc(=O)o1 [compound 2, 4H-1,3-dioxine-2,4-dione]
[2]
  Affection of ATPase activity of ClpC1: did not affect the ATPase activity of ClpC1
[4]
  antioxidant activity: possesses antioxidant activity
HCV NS3 protease
  IC50: 78.9 µM
leukocyte
  leukocyte inhibitory effects: leukocyte inhibitory effects

## Cyclomarin A
Tuberculosis bacteria
  anti-tuberculosis activity: anti-tuberculosis activity through the mechanism of targeting the regulatory protein ClpC1 of tuberculosis bacteria

## cyclomarin
ClpC1 [5]
  effect on ATPase activity of ClpC1: shown to affect the ATPase activity of ClpC1

## ecumicin
ClpC1/CplP1/ClpP2
  effect on proteolysis: affecting proteolysis of ClpC1/CplP1/ClpP2
ClpC1 [5]
  effect on ATPase activity of ClpC1: shown to affect the ATPase activity of ClpC1
  ClpC1 inhibition: inhibited ClpC1
ClpC1 [6]
  binding site on ClpC1: binded to the allosteric site of ClpC1, causing a change in configuration

## halolitoralin A [compound 3]
[2]; comparison with standard compound ecumicin
  ATP hydrolysis effect of ClpC1 compared with ecumicin: similarly to ecumicin, but with lower ATP hydrolysis affection; also recorded: affected the ATPase activity of ClpC1 in a similar way to the standard compound ecumicin; also recorded: showed the effect on the ATPase hydrolysis activity of ClpC1, acting similar way to the antibiotic eucumicin
[2]
  Affection of ATPase activity of ClpC1: effective for the ATPase hydrolysis of the ClpC1 protein
[7]
  anthelmintic activity: anthelmintic activity
  antimicrobial activity: potent antimicrobial activity
[7]; in vitro
  antitumor activities: antitumor activities in vitro

## lassomycin
ClpC1 [5]
  effect on ATPase activity of ClpC1: shown to affect the ATPase activity of ClpC1
  ClpC1 inhibition: inhibited ClpC1

## rufomycin
ClpC1 [5]
  effect on ATPase activity of ClpC1: shown to affect the ATPase activity of ClpC1
  ClpC1 inhibition: inhibited ClpC1
